Laboratory results taken from the supplement of paper PMC5908809.

Experiments:
[1] = tested on: normal NK cells expanded with K562-aAPC; test: percent inhibition of viability; higher = more inhibition; details: 72 h, IL-2 2.5 ng/mL
Protocol: (§1)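 Drug sensitivity and resistance testing on K562-aAPC-expanded normal NK cells: 5 concentrations (10-fold steps over a 10,000-fold range), 72 h at 37 °C, viability by CellTiter-Glo normalised to DMSO and benzethonium chloride controls; DSS from the fitted curve.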

DERL-7 (IL-2 2.5 ng/mL) [2] = test: as above; details: 72 h
IMC-1 (IL-2 20 ng/mL) [3] = test: as above; details: 72 h
KAI3 (IL-2 2.5 ng/mL) [4] = test: as above; details: 72 h
KHYG-1 (IL-2 2.5 ng/mL) [5] = test: as above; details: 72 h
NK-92 (IL-2 2.5 ng/mL) [6] = test: as above; details: 72 h
NK-YS (IL-2 2.5 ng/mL) [7] = test: as above; details: 72 h
NKL (IL-2 2.5 ng/mL) [8] = test: as above; details: 72 h
SNK-6 (IL-2 2.5 ng/mL) [9] = test: as above; details: 72 h
YT (IL-2 2.5 ng/mL) [10] = test: as above; details: 72 h
[11] = tested on: normal primary NK cells, pool 1 (3 donors) (IL-2 2.5 ng/mL); test: as above; details: 72 h
[12] = tested on: normal primary NK cells, pool 1 (3 donors), resting (IL-2 0 ng/mL); test: as above; details: 72 h
[13] = tested on: normal primary NK cells, pool 2 (3 donors) (IL-2 2.5 ng/mL); test: as above; details: 72 h
[14] = tested on: normal primary NK cells, pool 3 (3 donors) (IL-2 2.5 ng/mL); test: as above; details: 72 h
[15] = tested on: normal NK cells expanded with K562-aAPC; test: drug sensitivity score (DSS) (DSS units); higher = more sensitive; extreme values may be limits of the assay; details: 72 h; IL-2 2.5 ng/mL
Protocol: as §1

DERL-7 (IL-2 2.5 ng/mL) [16] = test: as above; details: 72 h
IMC-1 (IL-2 20 ng/mL) [17] = test: as above; details: 72 h
KAI3 (IL-2 2.5 ng/mL) [18] = test: as above; details: 72 h
KHYG-1 (IL-2 2.5 ng/mL) [19] = test: as above; details: 72 h
NK-92 (IL-2 2.5 ng/mL) [20] = test: as above; details: 72 h
NK-YS (IL-2 2.5 ng/mL) [21] = test: as above; details: 72 h
NKL (IL-2 2.5 ng/mL) [22] = test: as above; details: 72 h
SNK-6 (IL-2 2.5 ng/mL) [23] = test: as above; details: 72 h
YT (IL-2 2.5 ng/mL) [24] = test: as above; details: 72 h
[25] = tested on: normal primary NK cells, pool 1 (3 donors) (IL-2 2.5 ng/mL); test: as above; details: 72 h
[26] = tested on: normal primary NK cells, pool 1 (3 donors), resting (IL-2 0 ng/mL); test: as above; details: 72 h
[27] = tested on: normal primary NK cells, pool 2 (3 donors) (IL-2 2.5 ng/mL); test: as above; details: 72 h
[28] = tested on: normal primary NK cells, pool 3 (3 donors) (IL-2 2.5 ng/mL); test: as above; details: 72 h

COc1cc(OC2CCN(C)CC2)ccc1Nc1ncc2c(n1)n(C1CCCC1)c(=O)n2C [AZ 3146] (max concentration tested 10000 nM)
percent inhibition of viability [%]
Details	1 nM	10 nM	100 nM	1000 nM	10000 nM
DERL-7 (IL-2 2.5 ng/mL) [2]	-4.12	4.05	2.89	9.9	98.6
IMC-1 (IL-2 20 ng/mL) [3]	-1.3	2.72	8.86	9.14	100
KAI3 (IL-2 2.5 ng/mL) [4]	-6.95	-0.01	1.16	23.6	97.9
KHYG-1 (IL-2 2.5 ng/mL) [5]	3.47	1.13	9.55	13.1	104
NK-92 (IL-2 2.5 ng/mL) [6]	0.39	-0.68	10.8	-7.78	55.7
NK-YS (IL-2 2.5 ng/mL) [7]	1	1.98	6.37	19	93.4
NKL (IL-2 2.5 ng/mL) [8]	-14.9	-7.34	-5.85	12.7	92.9
SNK-6 (IL-2 2.5 ng/mL) [9]	16.5	16.6	28.5	15.2	90
YT (IL-2 2.5 ng/mL) [10]	2.24	1.06	7.18	13.3	92.1
[1]	-2.2	0.53	-2.22	4.68	95.5
[11]	-2.73	-14.2	-10.5	0.05	89.1
[12]	8.87	-6.36	1.82	9.09	81.8
[13]	-14.1	-0.67	12.1	6.73	74.2
[14]	-14.2	1.88	2.52	5.03	80

Details	drug sensitivity score
DERL-7 (IL-2 2.5 ng/mL) [16]	7.08
IMC-1 (IL-2 20 ng/mL) [17]	7.02
KAI3 (IL-2 2.5 ng/mL) [18]	9.06
KHYG-1 (IL-2 2.5 ng/mL) [19]	7.83
NK-92 (IL-2 2.5 ng/mL) [20]	2.49
NK-YS (IL-2 2.5 ng/mL) [21]	8.24
NKL (IL-2 2.5 ng/mL) [22]	7.26
SNK-6 (IL-2 2.5 ng/mL) [23]	7.53
YT (IL-2 2.5 ng/mL) [24]	7.34
[15]	5.96
[25]	4.98
[26]	6.04
[27]	5.18
[28]	5.18

CNC(=O)c1cccc(-c2ccc3c(N4CCOC[C@@H]4C)nc(N4CCOC[C@@H]4C)nc3n2)c1 [AZD2014] (max concentration tested 10000 nM)
percent inhibition of viability [%]
Details	1 nM	10 nM	100 nM	1000 nM	10000 nM
DERL-7 (IL-2 2.5 ng/mL) [2]	-2.59	6.55	37.5	74.8	87.2
IMC-1 (IL-2 20 ng/mL) [3]	-8.07	-10.1	-19.9	-44.5	8.41
KAI3 (IL-2 2.5 ng/mL) [4]	19.5	24.3	46.2	65.3	73.2
KHYG-1 (IL-2 2.5 ng/mL) [5]	8.26	7.2	12.9	48.3	87.9
NK-92 (IL-2 2.5 ng/mL) [6]	4.44	-1.39	29.1	57.6	86.6
NK-YS (IL-2 2.5 ng/mL) [7]	7.61	7.66	23	61.5	81.5
NKL (IL-2 2.5 ng/mL) [8]	8.6	17.6	50.9	66.7	73
SNK-6 (IL-2 2.5 ng/mL) [9]	5.51	16.6	22.9	45	60.5
YT (IL-2 2.5 ng/mL) [10]	10.9	6.65	18.3	60.6	78.2
[1]	1.08	8.53	26.5	39.1	53.6
[11]	5.65	6.16	19.9	34.6	35.5
[12]	-7.02	8.25	24.4	20.1	45.9
[13]	-6.11	7.01	7.49	28.2	29.1
[14]	0.74	5.96	9.04	27.7	27.3

Details	drug sensitivity score
DERL-7 (IL-2 2.5 ng/mL) [16]	18.6
IMC-1 (IL-2 20 ng/mL) [17]	0
KAI3 (IL-2 2.5 ng/mL) [18]	21
KHYG-1 (IL-2 2.5 ng/mL) [19]	11.2
NK-92 (IL-2 2.5 ng/mL) [20]	14.5
NK-YS (IL-2 2.5 ng/mL) [21]	14.4
NKL (IL-2 2.5 ng/mL) [22]	20.4
SNK-6 (IL-2 2.5 ng/mL) [23]	12.5
YT (IL-2 2.5 ng/mL) [24]	13.5
[15]	10.8
[25]	8.12
[26]	9.03
[27]	5.3
[28]	5.08
